Literature values as cited in patent US20040259949A1, “Method” (priority 2001, published 2004).

Experiments:
[1] = mice
[2] = rat model

Compound | effect of PDT on healing of colonic anastomosis [1] | effect of PDT on viability of normal human fibroblasts (normal human fibroblasts) | influence of PDT on skin wound healing [2]
NCC(=O)CCC(=O)O [5-ALA, 5-amino-4-oxo-pentanoic acid] | no significant impairment in healing of colonic anastomosis | no effect on viability of normal human fibroblasts | –
benzoporphyrin derivative monoacid ring A [BDP-MA] | – | – | did not influence skin wound healing
